Results: PMC9402538, “Rational design of a sensitivity-enhanced tracer for discovering efficient APC–Asef inhibitors” (Nature Communications, 2022)
pIC50: −log10 of the molar value. Where two headings read alike, the source gives them in different places. Where a SMILES comes first, the peptide text is derived from it. [ ]: non-standard residue; d: D form. The star is where a group is joined. Ala(cPent) = N[C@@H](CC1CCCC1)C(=O)O; Benzoyl(4-OMe) = COc1ccc(C(=O)*)cc1

Target: T1, APC (303–739) (Homo sapiens, UniProt P25054)
T1 sequence (P25054 303-739): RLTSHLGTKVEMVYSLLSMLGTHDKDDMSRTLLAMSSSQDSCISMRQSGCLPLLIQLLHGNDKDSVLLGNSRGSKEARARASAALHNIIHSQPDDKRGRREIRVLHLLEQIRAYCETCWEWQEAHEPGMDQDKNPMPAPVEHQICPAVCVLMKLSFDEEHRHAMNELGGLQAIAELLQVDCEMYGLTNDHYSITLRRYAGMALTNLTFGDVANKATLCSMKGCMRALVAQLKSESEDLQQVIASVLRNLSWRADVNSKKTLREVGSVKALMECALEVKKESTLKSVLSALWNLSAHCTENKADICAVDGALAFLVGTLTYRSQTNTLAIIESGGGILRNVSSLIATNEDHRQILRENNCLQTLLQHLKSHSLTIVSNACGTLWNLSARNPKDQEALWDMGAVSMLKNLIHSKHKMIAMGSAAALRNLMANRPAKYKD
Test: FP competitive assay using tracer 7
Assay type: binding
Settings: for pIC50: tracer 7
How it was run: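 Fluorescence polarization competition: APC (303–739) in 50 mM HEPES pH 7.5, 300 mM NaCl, 1 mM EDTA, 1 mM DTT, preincubated 1 h at room temperature with serially diluted peptides. FITC tracer 7 then added (400 nM stock) and FP read after 1.5 h at room temperature; IC50 by nonlinear regression, triplicates.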

[1] = Conc. 4 μM, individual repeats, Fig3b

- inhibition at 0.001 µM (Conc. 0.001 μM, individual repeats, Fig3b, read-out: %inhibition): 1.6%
- %inhibition (Conc. 0.002 μM, individual repeats, Fig3b): 2.6%
- inhibition at 0.002 µM (Conc. 0.002 μM, individual repeats, Fig3b, read-out: %inhibition): 2.9%
- %inhibition (Conc. 0.0039 μM, individual repeats, Fig3b): 5.4%
- inhibition at 0.0039 µM (Conc. 0.0039 μM, individual repeats, Fig3b, read-out: %inhibition): 4.1%
- inhibition at 0.006 µM (Conc. 0.006 μM, individual repeats, Fig3b, read-out: %inhibition): 4.4%
- %inhibition (Conc. 0.0078 μM, individual repeats, Fig3b): 13.3%
- inhibition at 0.0078 µM (Conc. 0.0078 μM, individual repeats, Fig3b, read-out: %inhibition): 8.8%
- inhibition at 0.012 µM (Conc. 0.012 μM, individual repeats, Fig3b, read-out: %inhibition): 16.9%
- %inhibition (Conc. 0.0156 μM, individual repeats, Fig3b): 35%
- inhibition at 0.0156 µM (Conc. 0.0156 μM, individual repeats, Fig3b, read-out: %inhibition): 24%
- inhibition at 0.024 µM (Conc. 0.024 μM, individual repeats, Fig3b, read-out: %inhibition): 38.4%
- %inhibition (Conc. 0.0313 μM, individual repeats, Fig3b): 59%
- inhibition at 0.0313 µM (Conc. 0.0313 μM, individual repeats, Fig3b, read-out: %inhibition): 51.7%
- inhibition at 0.049 µM (Conc. 0.049 μM, individual repeats, Fig3b, read-out: %inhibition): 60.2%
- %inhibition (Conc. 0.0625 μM, individual repeats, Fig3b): 74.1%
- inhibition at 0.0625 µM (Conc. 0.0625 μM, individual repeats, Fig3b, read-out: %inhibition): 71.7%
- inhibition at 0.098 µM (Conc. 0.098 μM, individual repeats, Fig3b, read-out: %inhibition): 77.7%
- %inhibition (Conc. 0.125 μM, individual repeats, Fig3b): 86.1%
- inhibition at 0.125 µM (Conc. 0.125 μM, individual repeats, Fig3b, read-out: %inhibition): 85.5%
- inhibition at 0.195 µM (Conc. 0.195 μM, individual repeats, Fig3b, read-out: %inhibition): 89%
- %inhibition (Conc. 0.25 μM, individual repeats, Fig3b): 91.7%
- inhibition at 0.25 µM (Conc. 0.25 μM, individual repeats, Fig3b, read-out: %inhibition): 92.8%
- inhibition at 0.391 µM (Conc. 0.391 μM, individual repeats, Fig3b, read-out: %inhibition): 94.2%
- %inhibition (Conc. 0.5 μM, individual repeats, Fig3b): 95.8%
- inhibition at 0.5 µM (Conc. 0.5 μM, individual repeats, Fig3b, read-out: %inhibition): 96.7%
- inhibition at 0.781 µM (Conc. 0.781 μM, individual repeats, Fig3b, read-out: %inhibition): 97.3%
- %inhibition (Conc. 1 μM, individual repeats, Fig3b): 97.7%
- inhibition at 1 µM (Conc. 1 μM, individual repeats, Fig3b, read-out: %inhibition): 98.4%
- inhibition at 1.563 µM (Conc. 1.563 μM, individual repeats, Fig3b, read-out: %inhibition): 98.1%
- inhibition at 2 µM (Conc. 2 μM, individual repeats, Fig3b, read-out: %inhibition): 99.3%
- inhibition at 3.125 µM (Conc. 3.125 μM, individual repeats, Fig3b, read-out: %inhibition): 98.9%
- %inhibition [1]: 98.8%
- inhibition at 4 µM [1]: 99%
- inhibition at 6.25 µM (Conc. 6.25 μM, individual repeats, Fig3b, read-out: %inhibition): 99.5%
- inhibition at 8 µM (Conc. 8 μM, individual repeats, Fig3b): 99%
- inhibition at 12.5 µM (Conc. 12.5 μM, individual repeats, Fig3b, read-out: %inhibition): 97.6%
- inhibition at 25 µM (Conc. 25 μM, individual repeats, Fig3b, read-out: %inhibition): 97.6%
- inhibition at 50 µM (Conc. 50 μM, individual repeats, Fig3b, read-out: %inhibition): 97.6%
- mean (FP signal, FigS5) (Repeat 1, Conc. 0.006 μM): 284.3
- mean (FP signal, FigS5) (Repeat 1, Conc. 0.012 μM): 253.5
- mean (FP signal, FigS5) (Repeat 1, Conc. 0.024 μM): 200.3
- mean (FP signal, FigS5) (Repeat 1, Conc. 0.049 μM): 146.3
- mean (FP signal, FigS5) (Repeat 1, Conc. 0.098 μM): 103
- mean (FP signal, FigS5) (Repeat 1, Conc. 0.195 μM): 75
- mean (FP signal, FigS5) (Repeat 1, Conc. 0.391 μM): 62
- mean (FP signal, FigS5) (Repeat 1, Conc. 0.781 μM): 54.3
- mean (FP signal, FigS5) (Repeat 1, Conc. 1.563 μM): 52.3
- mean (FP signal, FigS5) (Repeat 1, Conc. 3.125 μM): 50.3
- mean (FP signal, FigS5) (Repeat 1, Conc. 6.25 μM): 49
- mean (FP signal, FigS5) (Repeat 1, Conc. 12.5 μM): 53.7
- mean (FP signal, FigS5) (Repeat 1, Conc. 25 μM): 53.7
- mean (FP signal, FigS5) (Repeat 1, Conc. 50 μM): 53.7
- mean (FP signal, FigS5) (Repeat 2, Conc. 0.001 μM): 301
- mean (FP signal, FigS5) (Repeat 2, Conc. 0.002 μM): 297.7
- mean (FP signal, FigS5) (Repeat 2, Conc. 0.0039 μM): 294.7
- mean (FP signal, FigS5) (Repeat 2, Conc. 0.0078 μM): 282.7
- mean (FP signal, FigS5) (Repeat 2, Conc. 0.0156 μM): 244
- mean (FP signal, FigS5) (Repeat 2, Conc. 0.0313 μM): 173.3
- mean (FP signal, FigS5) (Repeat 2, Conc. 0.0625 μM): 122.3
- mean (FP signal, FigS5) (Repeat 2, Conc. 0.125 μM): 87.3
- mean (FP signal, FigS5) (Repeat 2, Conc. 0.25 μM): 68.7
- mean (FP signal, FigS5) (Repeat 2, Conc. 0.5 μM): 58.7
- mean (FP signal, FigS5) (Repeat 2, Conc. 1 μM): 54.3
- mean (FP signal, FigS5) (Repeat 2, Conc. 2 μM): 52
- mean (FP signal, FigS5) (Repeat 2, Conc. 4 μM): 53
- mean (FP signal, FigS5) (Repeat 2, Conc. 8 μM): 53
- mean (FP signal, FigS5) (Repeat 3, Conc. 0.001 μM): 292.7
- mean (FP signal, FigS5) (Repeat 3, Conc. 0.002 μM): 290.3
- mean (FP signal, FigS5) (Repeat 3, Conc. 0.0039 μM): 283.3
- mean (FP signal, FigS5) (Repeat 3, Conc. 0.0078 μM): 264
- mean (FP signal, FigS5) (Repeat 3, Conc. 0.0156 μM): 211
- mean (FP signal, FigS5) (Repeat 3, Conc. 0.0313 μM): 152
- mean (FP signal, FigS5) (Repeat 3, Conc. 0.0625 μM): 115
- mean (FP signal, FigS5) (Repeat 3, Conc. 0.125 μM): 85.7
- mean (FP signal, FigS5) (Repeat 3, Conc. 0.25 μM): 72
- mean (FP signal, FigS5) (Repeat 3, Conc. 0.5 μM): 62
- mean (FP signal, FigS5) (Repeat 3, Conc. 1 μM): 57.3
- mean (FP signal, FigS5) (Repeat 3, Conc. 2 μM): 56.3
- mean (FP signal, FigS5) (Repeat 3, Conc. 4 μM): 54.7
- mean (FP signal, FigS5) (Repeat 3, Conc. 8 μM): 53.3
- pIC50 (mean of three repeats, read-out: IC50 mean): 7.60
- pIC50 (read-out: IC50 Repeat 1): 7.64
- pIC50 (read-out: IC50 Repeat 2): 7.53
- pIC50 (read-out: IC50 Repeat 3): 7.64
Structure (SMILES): COc1ccc(C(=O)N[C@@H](C)C(=O)NCC(=O)N[C@@H](CCC(=O)O)C(=O)N[C@@H](CO)C(=O)N[C@@H](CC2CCCC2)C(=O)N[C@@H](Cc2ccc(O)cc2)C(=O)N[C@@H](CCC(=O)O)C(N)=O)cc1 [MAI-519] ({Benzoyl(4-OMe)}-AGES[Ala(cPent)]YE-NH2)
